In patent US6451812B1, “Farnesyl protein transferase inhibitors for treating arthropathies” (Janssen Pharmaceutica N.V., priority 1998, dated 2002):
Read-outs that look alike come from different tables or passages of the source.

Columns and labels:
[1] = tested on: DBA1/J mice; assay: Collagen type II induced arthritis, prophylactic treatment (Example 1); format: in vivo; details: for Ankylosis score / Incidence of ankylosis (% of animals affected) / Incidence of arthritis (% of animals affected) / Mean Arthritic Score / Mean number of affected paws: 100 mpk (2 ×) orally, treated day 20-36
Description: Male DBA1/J mice were immunized intradermally with collagen type II emulsified in complete Freund's Adjuvant on day 0 and day 21. Treatment of mice was started on day 20 (10 animals/treatment group). Mice were treated orally twice daily (6 hours time interval) with vehicle [DMSO: cremophor: 0.9% NaCl solution, 1:1:8 (v:v:v)] or compound 75 at a dose of 100 mg/kg. Three times per week symptoms of arthritis were scored. Animals were treated till day 36, at day 37 animals were sacrificed, blood was collected for analysis of anti-collagen antibodies, radiographs were made and paws were fixed for histological evaluation. […] Trained lab personnel evaluated the severity and incidence of the arthritic symptoms at regular intervals without knowing which animals had received vehicle or drug.
In Table 9, the mean arthritic score is shown. For each paw, a score ranging from 0 (normal) to 2 (maximal redness and swelling) is given. The score for the 4 paws is summed up and averaged for the 10 animals per group (=Mean arthritic score).
Table 11 summarizes the results of the observations for the occurrence of ankylosis as the arthritis progresses. Each paw is scored as follows: 0 for no ankylosis, 1 for ankylosis. Again the results for the four paws are summed up and averaged for the 10 animals. At the end of the experiment, the ankylosis score in the vehicle group (3.1) is clearly higher than that in the group treated with Compound 75 (1.2).

[2] = tested on: Lewis rats; format: in vivo; details: for % change in body-weight #<−21% / % change in body-weight #>10% / % change in body-weight Mean: day 14-21, 6 animals; for % change in swelling Mean / % change in swelling #<80% / % change in swelling #>170% / % change in swelling #>150%: paw swelling day 21 as % of day 14, 6 animals; for % change in swelling #<80%: criterion for anti-inflammatory activity; for % change in swelling #>170%: pro-inflammatory activity; for % change in swelling #>150%: tendency towards pro-inflammatory activity
Description: Male SPF-breeded Lewis rats (Charles River; 225-275 g) were housed in individual cages under standard laboratory conditions (21±2° C.; 65±15% relative humidity; light-dark cycle set at 12 h). Mycobacterium butyricum (heat-killed and suspended in paraffin oil at 5 mg/ml; 0.05 ml) was inoculated intradermally at the tail base of the rats. On day 14 after inoculation, the diameters (Ø) of the hind paws and tibiotarsal joints (ΣØ14) were compared with the initial diameters (ΣØ0) and rats with a significant swelling (ΔØ14-0≧6.0 mm) were assigned to the various treatment groups (n=6; […]).
Body weight and paw diameters were measured at days 14 and after 1-week treatment at day 21. Diet consumption was also measured and the number of dead animals on day 21 was noted. Paw swelling at day 21 was expressed as a percentage of the initial inflammation at the start of the treatment (day 14). Control animals were included in each experimental session. Test compounds were administered via a medicated diet. For that purpose, compounds were mixed with ground pellets in proportion to give an approximate daily dose. This medicated diet was administered ad libitum during the experimental period. The real dose was calculated by multiplying the consumed amount of diet with the concentration of the test compound in the diet.
Based on a frequency distribution of a series of control data (n=181), all-or-nothing criteria for drug-induced effects were established. The averaged body weight change during the 1 week experimental period in the control population was a decrease of 7 g. […] In the same set of control animals, paw swelling at day 21 was on the average 117% of the initial value at day 14.

[3] = 100 mg/kg orally twice daily, day 20-36
[4] = 100 mg/kg orally twice daily, versus vehicle
[5] = dose 40 mg/kg via medicated diet
[6] = dose 80 mg/kg via medicated diet
[7] = dose 160 mg/kg via medicated diet

For `Cn1cncc1C(N)(c1ccc(Cl)cc1)c1ccc2c(c1)c(-c1cccc(Cl)c1)cc(=O)n2C` (single isomer, unassigned; (+)) [Compound 75, (+)-6-[amino(4-chlorophenyl)(1-methyl-1H-imidazol-5-yl)methyl]-4-(3-chlorophenyl)-1-methyl-2(1H)-quinolinone], the lethalities [1, 3] was “no lethalities were observed”, the signs of toxicity [1, 3] was “did not show any signs of toxicity” and the “effect on mean arthritic score (in words)” value [1, 4] was “clearly suppresses the arthritic score”. The “effect on mean number of affected paws (in words)” value [1, 4] was “reduces that number”, the “effect on mean arthritic score (in words)” value ([1]; 100 mg/kg orally twice daily, versus vehicle, listed as compound 75) was “reduces the mean arthritic score” and the incidence of ankylosis ([1]; 100 mg/kg orally twice daily, summary in text of Table 12) was 60%. The Ankylosis score ([1]; day 22 after immunization) was 0.00, the “Incidence of ankylosis (% of animals affected)” value ([1]; day 22 after immunization) was 0% and the “Incidence of arthritis (% of animals affected)” value ([1]; day 22 after immunization) was 0%. The “Mean Arthritic Score” value ([1]; day 22 after immunization) was 0.00, the “Mean number of affected paws” value ([1]; day 22 after immunization) was 0.00 and the Ankylosis score ([1]; day 24 after immunization) was 0.00. For the same compound, the “Incidence of ankylosis (% of animals affected)” value ([1]; day 24 after immunization) was 0%, the “Incidence of arthritis (% of animals affected)” value ([1]; day 24 after immunization) was 20% and the “Mean Arthritic Score” value ([1]; day 24 after immunization) was 0.05. For the same compound, the “Mean number of affected paws” value ([1]; day 24 after immunization) was 0.20, the Ankylosis score ([1]; day 27 after immunization) was 0.30 and the “Incidence of ankylosis (% of animals affected)” value ([1]; day 27 after immunization) was 10%. The “Incidence of arthritis (% of animals affected)” value ([1]; day 27 after immunization) was 40%, the “Mean Arthritic Score” value ([1]; day 27 after immunization) was 0.60 and the “Mean number of affected paws” value ([1]; day 27 after immunization) was 0.80. The Ankylosis score ([1]; day 29 after immunization) was 0.80, the “Incidence of ankylosis (% of animals affected)” value ([1]; day 29 after immunization) was 50% and the “Incidence of arthritis (% of animals affected)” value ([1]; day 29 after immunization) was 80%. The “Mean Arthritic Score” value ([1]; day 29 after immunization) was 0.90, the “Mean number of affected paws” value ([1]; day 29 after immunization) was 1.30 and the Ankylosis score ([1]; day 31 after immunization) was 1.10. For the same compound, the “Incidence of ankylosis (% of animals affected)” value ([1]; day 31 after immunization) was 50%, the “Incidence of arthritis (% of animals affected)” value ([1]; day 31 after immunization) was 70% and the “Mean Arthritic Score” value ([1]; day 31 after immunization) was 1.03. For the same compound, the “Mean number of affected paws” value ([1]; day 31 after immunization) was 1.70, the Ankylosis score ([1]; day 34 after immunization) was 1.20 and the “Incidence of ankylosis (% of animals affected)” value ([1]; day 34 after immunization) was 50%. The “Incidence of arthritis (% of animals affected)” value ([1]; day 34 after immunization) was 60%, the “Mean Arthritic Score” value ([1]; day 34 after immunization) was 0.80 and the “Mean number of affected paws” value ([1]; day 34 after immunization) was 1.20. The Ankylosis score ([1]; day 36 after immunization) was 1.40, the “Incidence of ankylosis (% of animals affected)” value ([1]; day 36 after immunization) was 60% and the “Incidence of arthritis (% of animals affected)” value ([1]; day 36 after immunization) was 70%. The “Mean Arthritic Score” value ([1]; day 36 after immunization) was 0.75, the “Mean number of affected paws” value ([1]; day 36 after immunization) was 1.30 and the Ankylosis score ([1]; day 37 after immunization (end of the experiment), 100 mg/kg) was 1.2. For the same compound, the “Incidence of ankylosis (% of animals affected)” value ([1]; day 37 after immunization) was 60%, the “Incidence of arthritis (% of animals affected)” value ([1]; day 37 after immunization) was 60% and the “Mean Arthritic Score” value ([1]; day 37 after immunization) was 0.80. The “Mean number of affected paws” value ([1]; day 37 after immunization) was 1.30, the “% change in body-weight #<−21%” value [2, 5] was 0 number of animals and the “% change in body-weight #>10%” value [2, 5] was 0 number of animals. The “% change in body-weight Mean” value [2, 5] was −9%, the “% change in swelling Mean” value [2, 5] was 94% and the “% change in swelling #<80%” value [2, 5] was 0 number of animals. The “% change in swelling #>170%” value [2, 5] was 0 number of animals, the “% change in swelling #>150%” value [2, 5] was 0 number of animals and the “% change in body-weight #<−21%” value [2, 6] was 4 number of animals. The “% change in body-weight #>10%” value [2, 6] was 0 number of animals, the “% change in body-weight Mean” value [2, 6] was −19% and the “% change in swelling Mean” value [2, 6] was 86%. The “% change in swelling #<80%” value [2, 6] was 3 number of animals, the “% change in swelling #>170%” value [2, 6] was 0 number of animals and the “% change in swelling #>150%” value [2, 6] was 0 number of animals. For the same compound, the “% change in body-weight #<−21%” value [2, 7] was 4 number of animals, the “% change in body-weight #>10%” value [2, 7] was 0 number of animals and the “% change in body-weight Mean” value [2, 7] was −24%. The “% change in swelling Mean” value [2, 7] was 79%, the “% change in swelling #<80%” value [2, 7] was 3 number of animals and the “% change in swelling #>170%” value [2, 7] was 0 number of animals. The “% change in swelling #>150%” value [2, 7] was 0 number of animals.
